The values that follow are results of earlier work, collected in patent publication US10631556B2, “Method for conducing concentrated cannabis oil to be stable, emulsifiable and flavorless for use in hot beverages and resulting powderized cannabis oil” (Pivot Naturals, LLC., priority 2015, dated 2020).

The conditions of data set [1]: inhalation.
Data set [2] has as its target CYP 2C9 (Homo sapiens, UniProt P11712). Conditions: anecdotal online article.
The subject of data set [3] is Mice. The conditions noted are these: odor inhaled from ambient air for 1 hour.
The conditions of data set [4]: mice, odor inhaled from ambient air for 1 hour.
Data set [5] deals with Mice.

Sequence of CYP 2C9 (P11712 whole entry): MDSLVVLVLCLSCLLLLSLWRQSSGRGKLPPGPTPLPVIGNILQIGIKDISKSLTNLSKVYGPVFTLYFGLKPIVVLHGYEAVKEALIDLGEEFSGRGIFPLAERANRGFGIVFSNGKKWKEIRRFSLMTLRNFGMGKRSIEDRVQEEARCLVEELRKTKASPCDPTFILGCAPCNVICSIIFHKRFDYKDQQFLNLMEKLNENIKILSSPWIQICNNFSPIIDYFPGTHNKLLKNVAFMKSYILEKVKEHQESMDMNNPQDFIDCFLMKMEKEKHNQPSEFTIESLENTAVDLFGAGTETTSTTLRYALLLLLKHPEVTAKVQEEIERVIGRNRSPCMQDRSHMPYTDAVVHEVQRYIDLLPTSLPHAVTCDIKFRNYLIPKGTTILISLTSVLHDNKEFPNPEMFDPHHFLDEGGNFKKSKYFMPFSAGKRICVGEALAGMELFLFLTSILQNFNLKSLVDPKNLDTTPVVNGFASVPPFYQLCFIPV

Take `C=C(C)[C@H]1CC=C(C)CC1` [Limonene]: the human pulmonary uptake in data set [1] was 70%. Turning to `O=C(/C=C/C=C/c1ccc2c(c1)OCO2)N1CCCCC1` [Piperine], in data set [2], the “inhibition of CYP 2C9” value is recorded as “strongly”. Turning to `CCCCCc1cc(O)c2c(c1)OC(C)(C)[C@@H]1CCC(C)=C[C@@H]21` [THC, tetrahydrocannabinol], the “solubility in most organic solvents” value (organic solvents, specifically lipids and alcohols) is “good”. For the same molecule, the solubility in water entry (water) is “very low”. Regarding `C=CC(C)(O)CCC=C(C)C` (centres unmarked) [linalool], the reduction in motility in data set [3] is listed as 73%. Besides, in data set [4], the serum concentration was 4.22 ng/mL. Turning to `C=CC(=C)CCC=C(C)C` [myrcene], in data set [5], the muscle relaxant effect entry is listed as “acted as a muscle relaxant”. In data set [5] (high doses), the barbiturate sleep time result is “potentiated barbiturate sleep time”.

With pinene, the “increase in mouse activity” value in data set [3] is 13.77%. In data set [4], the serum concentration entry is on record as “trace”. In data set [1], the human pulmonary uptake was 60%.
